One series deals with lac promoter. Description: EGFP fluorescence reporter assay of induction of protein expression under the lac promoter. The format is cell-based, E. coli. The conditions noted are these: for EGFP fluorescence emission at 507 nm after excitation at 488 nm, normalized for the number of cells: induced at OD600 0.7, versus culture without inducer. The text has this:
To compare the ability of the C-glycoside to take the place of IPTG in the induction of protein expression, assays of promoter activity that rely on production of a fluorescent protein were pursued. Reporters for gene activity in bacteria that rely on green fluorescent protein (GFP) and its variants have become very popular as they have been validated by direct comparison to traditional reporter assays using either chloroamphenicol acetyltransferase or β-galactosidase. For bacterial studies, the enhanced green fluorescent protein (EGFP) is particularly useful as it is not toxic to E. coli like the wild type GFP itself and the protein folds and autocatalyzes formation of its fluorophore with a half-life of less than 45 minutes rather than hours. Therefore, the gene for EGFP (BD Biosciences) was ligated into a pET vector plasmid using NcoI and EcoRI in order to have control of EGFP protein expression with a lac promoter system and to have low background protein expression levels. This plasmid was transformed into E. coli BL21 DE(3) cells for protein expression studies. The cells were grown to an optical density of 0.7 (at 600 nm) and then protein production was induced with either IBCG or IPTG. The fluorescence emission at 507 nm after excitation at 488 nm, normalized for the number of cells, was plotted as a function of time (data not shown) as previously reported.
Background: A reporter such as luciferase makes a cellular process visible.

Series [1] in a line: Stability of the inducer in solution on storage. The class given is physicochemical. The conditions noted are these: ambient / room temperature; in water. The text has this: This improved stability feature of IBCG also results in more accurate concentrations of the compound when used in experiments.
The latter property is especially valuable for small scale culture induction and for cases in which a more precise concentration of inducer is desirable.

Where [2] appears, read: E. coli BL21 DE(3) with pET-EGFP plasmid.

“Also recorded” adds a separate entry of the source.

We go through 2 compounds from patent US7141394B2, “More stable analog of isopropyl thiogalactoside for induction of protein expression” (Iowa State University Research Foundation, Inc., priority 2003, dated 2006).

For the compound `CC(C)CC1OC(CO)C(O)C(O)C1O` [IBCG, 1-isobutyl-,β-D-galactose], in the series on lac promoter (setting [2]), the “EGFP fluorescence emission at 507 nm after excitation at 488 nm, normalized for the number of cells” value was “considerably larger”. The “EGFP fluorescence of IBCG induced cells compared with IPTG induced cells” value in the series with lac promoter (E. coli BL21 DE(3) with pET-EGFP plasmid, induction times of greater than four hours) was “even greater fluorescence than the IPTG induced cells”. Moreover, the cell permeability result in the series with lac promoter (E. coli cells, inferred from induction of protein expression) is “retains cell permeability”. Also, the stability in solution result in series [1] is “stable in solution at ambient temperature; also recorded: can be autoclaved in water and stored in room temperature”.

Take `CC(C)S[C@@H]1O[C@H](CO)[C@H](O)[C@H](O)[C@H]1O` [IPTG, isopropyl-β-D-thiogalactopyranoside, reference compound]: the “EGFP fluorescence emission at 507 nm after excitation at 488 nm, normalized for the number of cells” value in the series with lac promoter (setting [2]) is reported as “considerably larger”.
